target: Xanthine oxidase (from bovine milk, Sigma) (Bos taurus (Bovine), UniProt P80457); test: Xanthine oxidase inhibitory activity; assay type: biochemical; conditions: 100 μM xanthine final, absorbance at 290 nm
Experimental: (1) Preparation of Test Compounds
Test compounds were dissolved in DMSO (Wako) at 40 mM concentration and then diluted to intended concentrations with phosphate-buffered saline (PBS).
(2) Method for Measurement
Xanthine oxidase (from bovine milk, Sigma) was prepared with phosphate-buffered saline (PBS) at 0.02 units/mL, and then the solution was added to 96 well plates at 50 μL/well. In addition, test compounds diluted with PBS were added at 50 μL/well. Xanthine (Wako) at 200 μM prepared with PBS was added at 100 μL/well, and the reaction was conducted for 10 minutes at room temperature. Absorbance at 290 nm was measured using a microplate reader SpectraMax Plus 384 (Molecular device). The absorbance under a condition without xanthine is 0%, and control without test compounds is 100%. Fifty % inhibitory concentration of a test compound (IC50) was calculated (Tables 91 to 92). Ex. No in the table indicates Example number.

Chain of Xanthine oxidase (from bovine milk, Sigma) (P80457 whole entry): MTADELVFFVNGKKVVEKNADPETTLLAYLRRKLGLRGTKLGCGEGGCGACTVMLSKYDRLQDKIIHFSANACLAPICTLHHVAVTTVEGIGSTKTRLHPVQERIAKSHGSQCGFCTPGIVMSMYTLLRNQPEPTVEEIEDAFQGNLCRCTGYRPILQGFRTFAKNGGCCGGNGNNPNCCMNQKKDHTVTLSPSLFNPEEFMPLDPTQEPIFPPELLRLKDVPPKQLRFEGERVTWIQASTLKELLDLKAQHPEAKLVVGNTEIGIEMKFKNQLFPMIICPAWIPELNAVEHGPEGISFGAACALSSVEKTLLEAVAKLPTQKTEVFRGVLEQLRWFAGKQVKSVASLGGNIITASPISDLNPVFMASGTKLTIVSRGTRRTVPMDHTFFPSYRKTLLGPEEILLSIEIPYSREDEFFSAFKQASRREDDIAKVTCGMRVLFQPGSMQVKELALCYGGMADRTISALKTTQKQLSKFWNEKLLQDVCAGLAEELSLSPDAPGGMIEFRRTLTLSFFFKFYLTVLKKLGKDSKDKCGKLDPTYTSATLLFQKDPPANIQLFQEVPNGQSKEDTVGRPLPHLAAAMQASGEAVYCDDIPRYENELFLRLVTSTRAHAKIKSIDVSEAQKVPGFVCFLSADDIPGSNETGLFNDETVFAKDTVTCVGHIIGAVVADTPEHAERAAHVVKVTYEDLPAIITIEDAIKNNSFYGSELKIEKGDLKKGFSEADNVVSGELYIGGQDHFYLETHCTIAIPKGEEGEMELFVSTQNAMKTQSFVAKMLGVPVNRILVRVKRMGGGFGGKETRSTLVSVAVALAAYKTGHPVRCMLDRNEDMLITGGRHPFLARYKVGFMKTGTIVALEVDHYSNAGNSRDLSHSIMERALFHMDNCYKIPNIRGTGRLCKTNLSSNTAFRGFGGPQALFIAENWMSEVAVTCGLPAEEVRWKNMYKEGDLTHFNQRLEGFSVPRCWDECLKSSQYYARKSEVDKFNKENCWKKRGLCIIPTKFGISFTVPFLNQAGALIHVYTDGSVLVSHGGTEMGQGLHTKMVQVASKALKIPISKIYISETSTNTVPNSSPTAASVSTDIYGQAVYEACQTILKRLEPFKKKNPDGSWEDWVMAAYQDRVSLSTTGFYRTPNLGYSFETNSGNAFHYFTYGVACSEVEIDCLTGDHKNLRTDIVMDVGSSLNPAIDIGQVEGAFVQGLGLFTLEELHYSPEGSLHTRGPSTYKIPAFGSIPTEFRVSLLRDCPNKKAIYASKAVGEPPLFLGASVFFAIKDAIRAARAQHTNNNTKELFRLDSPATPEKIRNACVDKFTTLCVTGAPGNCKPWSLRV

Compound	IC50 [nM]
N#Cc1cn(-c2ccc(C(=O)O)c(O)c2)cc1Cc1ccccc1 [Example 357]	5.9
N#Cc1cn(-c2ccc(C(=O)O)c(O)c2)cc1-c1cccc(OCc2ccccc2)c1 [Example 333]	87.8
CCOc1ccc(-c2cn(-c3ccc(C(=O)O)c(O)c3)cc2C#N)cc1 [Example 340]	5.8
N#Cc1cccc(-c2cn(-c3ccc(C(=O)O)c(O)c3)cc2C#N)c1 [Example 330]	19.9
COc1cccc(-c2cn(-c3cc(C(=O)O)ccn3)cc2C#N)c1 [Example 367]	25
N#Cc1cn(-c2ccc(C(=O)O)c(O)c2)cc1-c1cc2ccccc2s1 [Example 289]	22.6
COc1ccccc1CCc1cn(-c2ccc(C(=O)O)c(O)c2)cc1C#N [Example 294]	11.2
O=C(O)c1ccc(-n2ccc([N+](=O)[O-])c2)cc1O [Example 351]	14.7
N#Cc1ccc(-c2cn(-c3ccc(C(=O)O)c(O)c3)cc2C#N)cc1 [Example 331]	5.3
CCCOc1ccccc1-c1cn(-c2ccc(C(=O)O)c(O)c2)cc1C#N [Example 336]	36.4
N#Cc1cn(-c2ccc(C(=O)O)c(O)c2)cc1-c1cccc(Cl)c1 [Example 278]	49.1
Cc1cccc(-c2cn(-c3ccc(C(=O)O)c(O)c3)cc2C#N)c1 [Example 280]	15.6
Cc1ccc(-c2cn(-c3ccc(C(=O)O)c(O)c3)cc2C#N)s1 [Example 310]	17.5
Cc1ccc(-c2cn(-c3ccc(C(=O)O)c(O)c3)cc2C#N)cc1 [Example 317]	6.8
Cc1ccccc1-c1cn(-c2ccc(C(=O)O)c(O)c2)cc1C#N [Example 307]	7.5
N#Cc1cn(-c2ccc(C(=O)O)c(O)c2)cc1C(=O)O [Example 299]	7.9
Cn1cc(-c2cn(-c3ccc(C(=O)O)c(O)c3)cc2C#N)c2ccccc21 [Example 292]	5.2
N#Cc1cn(-c2ccc(C(=O)O)c(O)c2)cc1-c1cccn1-c1ccccc1 [Example 304]	15.1
N#Cc1cn(-c2ccc(C(=O)O)c(O)c2)cc1-c1ccccc1F [Example 319]	8.1

Compound	IC50 [nM]
N#Cc1cn(-c2ccc(C(=O)O)c(O)c2)cc1-c1cccc2ccccc12 [Example 325]	13.1
N#Cc1cn(-c2ccc(C(=O)O)c(O)c2)cc1-c1ccc2c(c1)OCO2 [Example 321]	10.9
N#Cc1cn(-c2cc(C(=O)O)ccn2)cc1-c1cccs1 [Example 360]	145
N#Cc1cn(-c2ccc(C(=O)O)c(O)c2)cc1-c1cccc(C(F)(F)F)c1 [Example 281]	41.2
COc1ccc(-c2cn(-c3ccc(C(=O)O)c(O)c3)cc2C#N)c(F)c1 [Example 283]	6.2
N#Cc1ccn(-c2ccc(C(=O)O)c(O)c2)c1 [Example 358]	8.8
COc1ccc2ccccc2c1-c1cn(-c2ccc(C(=O)O)c(O)c2)cc1C#N [Example 286]	27.5
N#Cc1cn(-c2ccc(C(=O)O)c(O)c2)cc1CCc1ccccc1 [Example 287]	5.8
COc1ccc(F)c(-c2cn(-c3ccc(C(=O)O)c(O)c3)cc2C#N)c1 [Example 284]	9.3
N#Cc1cn(-c2ccc(C(=O)O)c(O)c2)cc1-c1ccc(Cl)s1 [Example 313]	5.2
N#Cc1cn(-c2ccc(C(=O)O)c(O)c2)cc1C(F)(F)F [Example 300]	7.9
CCc1c(-c2ccccc2)c(C#N)cn1-c1ccc(C(=O)O)c(O)c1 [Example 327]	7.1
COc1ccc(-c2cn(-c3cc(C(=O)O)ccn3)cc2C#N)cc1 [Example 368]	13.3
N#Cc1cn(-c2cc(C(=O)O)ccn2)cc1-c1ccc2c(c1)OCCO2 [Example 369]	9.7
N#Cc1cn(-c2ccc(C(=O)O)c(O)c2)cc1-c1ccc(F)cc1 [Example 320]	10.6
CSc1ccc(-c2cn(-c3ccc(C(=O)O)c(O)c3)cc2C#N)cc1 [Example 350]	13.7
CSc1ccccc1-c1cn(-c2ccc(C(=O)O)c(O)c2)cc1C#N [Example 349]	6.4
Cc1ccc(-c2cn(-c3cc(C(=O)O)ccn3)cc2C#N)cc1 [Example 363]	21.3
Cc1cn(-c2ccc(C(=O)O)c(O)c2)cc1C#N [Example 359]	6.1

same assay, conditions: 0.02 units/mL, xanthine 200 μM, 10 minutes at room temperature, absorbance at 290 nm

Compound	IC50 [nM]
COc1cn(-c2ccc(C(=O)O)cc2)cc1C#N [Example 220]	11.1
N#Cc1cn(-c2ccc(C(=O)O)cc2)cc1-c1ccccc1OCc1ccccc1C(F)(F)F [Example 180]	255
COc1cccc(COc2cccc(-c3cn(-c4ccc(C(=O)O)cc4)cc3C#N)c2)c1 [Example 198]	111
COCCOc1ccccc1-c1cn(-c2ccc(C(=O)O)cc2)cc1C#N [Example 201]	11.1
N#Cc1cn(-c2ccc(C(=O)O)cc2)cc1-c1ccccc1Oc1ccccc1 [Example 164]	33.2
COCOc1ccc(-c2cn(-c3ccc(C(=O)O)cc3)cc2C#N)cc1 [Example 145]	4.9
CCCc1c(C#N)cn(-c2ccc(C(=O)O)cc2)c1C [Example 239]	15
CCOCCOc1cccc(-c2cn(-c3ccc(C(=O)O)cc3)cc2C#N)c1 [Example 215]	6.7
N#Cc1cn(-c2ccc(C(=O)O)cc2)cc1CCc1ccco1 [Example 258]	3.9
N#Cc1cn(-c2ccc(C(=O)O)cc2)cc1-c1csc2ccccc12 [Example 253]	5.4
N#Cc1cn(-c2ccc(C(=O)O)cc2)nc1NC(=O)Cc1ccccc1 [Example 263]	4.6
N#Cc1cn(-c2ccc(C(=O)O)cc2)cc1-c1cccn1-c1ccccc1 [Example 255]	10.1
COCCNC(=O)c1cn(-c2ccc(C(=O)O)cc2)cc1C#N [Example 229]	7.2
CCCc1cn(-c2ccc(C(=O)O)cc2)cc1C#N [Example 238]	3.6
N#Cc1cn(-c2ccc(C(=O)O)cc2)cc1-c1cccc(Oc2ccccc2)c1 [Example 165]	32.2
COCOc1ccccc1-c1cn(-c2ccc(C(=O)O)cc2)cc1C#N [Example 143]	4.6
N#Cc1cn(-c2ccc(C(=O)O)cc2)cc1-c1ccccc1OCc1ccc(Cl)cc1 [Example 179]	143
CCOc1cn(-c2ccc(C(=O)O)cc2)cc1C#N [Example 257]	4.1
N#Cc1cn(-c2ccc(C(=O)O)cc2)cc1-c1ccccc1OCCO [Example 152]	4
COc1ccc(-c2cn(-c3ccc(C(=O)O)c(O)c3)cc2C#N)cc1F [Example 268]	13.3
N#Cc1cn(-c2ccc(C(=O)O)cc2)cc1-c1ccccc1OCC(=O)O [Example 158]	5.1
N#Cc1cn(-c2ccc(O)c(C(=O)O)c2)cc1-c1ccccc1 [Example 22, 5-(3-Cyano-4-phenylpyrrole-1-yl)-2-hydroxy-benzoic acid]	120
N#Cc1cn(-c2ccc(C(=O)O)cc2)nc1-c1csc2ccccc12 [Example 8, 4-(3-Benzo[b]thiophene-3-yl-4-cyanopyrazole-1-yl)benzoic acid]	7.5

Compound	IC50 [nM]
Cn1cc(-c2cn(-c3ccc(C(=O)O)cc3)cc2C#N)c2ccccc21 [Example 251]	23
N#Cc1cn(-c2ccc(C(=O)O)cc2)cc1CCc1ccccc1 [Example 207]	3.8
N#Cc1cn(-c2ccc(C(=O)O)cc2)cc1-c1ccc(O)cc1 [Example 148]	2.5
N#Cc1cn(-c2ccc(C(=O)O)cc2)cc1-c1cccc(OCC(=O)O)c1 [Example 159]	2.7
N#Cc1cn(-c2ccc(C(=O)O)cc2)cc1-c1cccc2ccccc12 [Example 209]	7.1
COCCN(C)C(=O)c1cn(-c2ccc(C(=O)O)cc2)cc1C#N [Example 230]	13
Cc1cccc(C)c1-c1cn(-c2ccc(C(=O)O)c(O)c2)cc1C#N [Example 272]	10.1
Cc1c(CC(C)C)c(C#N)cn1-c1ccc(C(=O)O)cc1 [Example 242]	9
N#Cc1cn(-c2ccc(C(=O)O)c(O)c2)cc1-c1ccccc1O [Example 12, 4-[3-Cyano-4-(2-hydroxyphenyl)pyrrole-1-yl]-2-hydroxy benzoic acid]	5.5
N#Cc1cn(-c2ccc(C(=O)O)cc2)cc1-c1cccc(OCc2cccs2)c1 [Example 173]	41.4
Cc1ccc(-c2cn(-c3ccc(C(=O)O)c(O)c3)cc2C#N)cc1F [Example 269]	23.4
N#Cc1cn(-c2ccc(C(=O)O)c(O)c2)cc1-c1c(F)cccc1F [Example 274]	5
N#Cc1cn(-c2ccc(C(=O)O)cc2)cc1-c1cccc(OCCCO)c1 [Example 150]	5
N#Cc1cn(-c2ccc(C(=O)O)cc2)cc1-c1cccc(OCc2ccccc2)c1 [Example 156]	52.9
COc1ccc(-c2cn(-c3ccc(C(=O)O)c(O)c3)cc2C#N)c(OC)c1 [Example 266]	10.4
COc1cccc(COc2ccccc2-c2cn(-c3ccc(C(=O)O)cc3)cc2C#N)c1 [Example 184]	71.9
N#Cc1cn(-c2ccc(C(=O)O)cc2)cc1-c1cccc(O)c1 [Example 147]	2.1
N#Cc1cn(-c2ccc(C(=O)O)cc2)cc1-c1cccc(OCc2cccc(F)c2)c1 [Example 190]	116
N#Cc1cn(-c2ccc(C(=O)O)cc2)cc1-c1ccccc1OCc1cccs1 [Example 175]	27.7
N#Cc1cn(-c2ccc(C(=O)O)cc2)cc1/C=C/c1ccccc1 [Example 206]	7.1
N#Cc1cn(-c2ccc(C(=O)O)cc2)cc1-c1ccco1 [Example 244]	3.6
N#Cc1cn(-c2ccc(C(=O)O)cc2)cc1-c1ccc(-c2ccccc2)cc1 [Example 163]	41.7

From patent US9023882B2, “5-membered nitrogen containing heterocyclic derivatives and pharmaceutical compositions comprising the same” (Kissei Pharmaceutical Co., Ltd., priority 2007, dated 2015)
